# Target: T1, GST-tagged-Wee1 kinase (Homo sapiens, UniProt P30291)
# T1 construct: purchased Carnabio 05-177
# Assay: Wee1 time-resolved fluorescence equilibrium binding assay (displacement of Oregon Green-labeled ATP-competitive probe)
# Conditions: TR-FRET probe displacement; 2 nM GST-Wee1, 300 nM probe, 1 hour incubation; read-out: Wee-1 binding (Ki nM)
# Description: Wee1 kinase was assayed using a time-resolved fluorescence equilibrium binding assay monitoring displacement of a rapidly reversible Oregon Green-labeled ATP-competitive kinase probe (N-(2-(2-(2-(4-(4-(5-chloro-4-(2-(1-hydroxycyclobutyl)thiazol-5-yl)-1H-pyrrolo[2,3-b]pyridin-2-yl)phenyl)piperazin-1-yl)ethoxy)ethoxy)ethyl)-2′,7′-difluoro-3′,6′-dihydroxy-3-oxo-3H-spiro[isobenzofuran-1,9′-xanthene]-5-carboxamide) by competitive Wee1 inhibitors.
# T1 sequence (P30291 whole entry): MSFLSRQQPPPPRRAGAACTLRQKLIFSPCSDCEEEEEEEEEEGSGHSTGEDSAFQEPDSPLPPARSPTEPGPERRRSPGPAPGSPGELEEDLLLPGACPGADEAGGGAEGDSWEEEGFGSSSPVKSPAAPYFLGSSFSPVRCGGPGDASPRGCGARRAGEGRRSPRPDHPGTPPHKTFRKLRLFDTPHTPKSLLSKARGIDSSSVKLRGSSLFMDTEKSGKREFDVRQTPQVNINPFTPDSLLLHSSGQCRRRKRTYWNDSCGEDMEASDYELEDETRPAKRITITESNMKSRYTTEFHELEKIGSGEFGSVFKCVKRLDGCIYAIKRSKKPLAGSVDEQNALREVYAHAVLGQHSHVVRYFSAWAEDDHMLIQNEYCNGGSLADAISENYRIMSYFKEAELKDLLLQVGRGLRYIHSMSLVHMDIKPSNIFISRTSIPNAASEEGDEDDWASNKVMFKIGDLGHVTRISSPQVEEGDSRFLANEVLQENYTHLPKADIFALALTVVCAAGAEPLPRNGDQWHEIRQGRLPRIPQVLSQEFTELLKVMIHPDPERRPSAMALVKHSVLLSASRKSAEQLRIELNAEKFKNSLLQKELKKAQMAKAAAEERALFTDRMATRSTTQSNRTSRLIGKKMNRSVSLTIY
row,Ki [nM],SMILES
1,1.8,"C=CCN1c2ccccc2-c2nc(Nc3ccc(N4CCN(C)CC4)cc3)ncc2S1(=O)=O [Example 1, 6-allyl-N-[4-(4-methylpiperazin-1-yl)phenyl]-6H-pyrimido[5,4-c][2,1]benzothiazin-2-amine 5,5-dioxide]"
2,1.7,"C/C=C/N1c2ccccc2-c2nc(Nc3ccc(N4CCN(C)CC4)cc3)ncc2S1(=O)=O [Example 2, N-[4-(4-methylpiperazin-1-yl)phenyl]-6-[(1E)-prop-1-en-1-yl]-6H-pyrimido[5,4-c][2,1]benzothiazin-2-amine 5,5-dioxide]"
3,4.8,"C=CCN1c2ccccc2-c2nc(Nc3ccc(OCCN(CC)CC)cc3)ncc2S1(=O)=O [Example 3, 6-allyl-N-{4-[2-(diethylamino)ethoxy]phenyl}-6H-pyrimido[5,4-c][2,1]benzothiazin-2-amine 5,5-dioxide]"
4,9,"C=CCN1c2ccccc2-c2nc(Nc3ccc4c(c3)N(C(C)=O)CC4)ncc2S1(=O)=O [Example 5, 1-{6-[(6-allyl-5,5-dioxido-6H-pyrimido[5,4-c][2,1]benzothiazin-2-yl)amino]-2,3-dihydro-1H-indol-1-yl}ethanone]"
5,47,"C=CCN1c2ccccc2-c2nc(Nc3ccc4c(c3)NC(=O)CO4)ncc2S1(=O)=O [Example 6, 6-[(6-allyl-5,5-dioxido-6H-pyrimido[5,4-c][2,1]benzothiazin-2-yl)amino]-2H-1,4-benzoxazin-3(4H)-one]"
6,1230,"C=CCN1c2ccccc2-c2nc(Nc3ccc(-c4ccncc4)cc3)ncc2S1(=O)=O [Example 7, 6-allyl-N-[4-(pyridin-4-yl)phenyl]-6H-pyrimido[5,4-c][2,1]benzothiazin-2-amine 5,5-dioxide]"
7,106,"C=CCN1c2ccccc2-c2nc(Nc3ccc4c(c3)N(C)CCC4)ncc2S1(=O)=O [Example 8, 6-allyl-N-(1-methyl-1,2,3,4-tetrahydroquinolin-7-yl)-6H-pyrimido[5,4-c][2,1]benzothiazin-2-amine 5,5-dioxide]"
8,50,"C=CCN1c2ccccc2-c2nc(Nc3ccc(N4CCC(C)CC4)cc3)ncc2S1(=O)=O [Example 9, 6-allyl-N-[4-(4-methylpiperidin-1-yl)phenyl]-6H-pyrimido[5,4-c][2,1]benzothiazin-2-amine 5,5-dioxide]"
9,5,"C=CCN1c2ccccc2-c2nc(Nc3ccc(N4CCN(C(C)=O)CC4)cc3)ncc2S1(=O)=O [Example 10, 1-(4-{4-[(6-allyl-5,5-dioxido-6H-pyrimido[5,4-c][2,1]benzothiazin-2-yl)amino]phenyl}piperazin-1-yl)ethanone]"
10,31,"C=CCN1c2ccccc2-c2nc(Nc3ccc(N4CCCCC4)cc3)ncc2S1(=O)=O [Example 11, 6-allyl-N-[4-(piperidin-1-yl)phenyl]-6H-pyrimido[5,4-c][2,1]benzothiazin-2-amine 5,5-dioxide]"
11,738,"C=CCN1c2ccccc2-c2nc(Nc3ccccc3N3CCN(C)CC3)ncc2S1(=O)=O [Example 12, 6-allyl-N-[2-(4-methylpiperazin-1-yl)phenyl]-6H-pyrimido[5,4-c][2,1]benzothiazin-2-amine 5,5-dioxide]"
12,2080,"C=CCN1c2ccccc2-c2nc(Nc3ccc(C4CCCCC4)cc3)ncc2S1(=O)=O [Example 13, 6-allyl-N-(4-cyclohexylphenyl)-6H-pyrimido[5,4-c][2,1]benzothiazin-2-amine 5,5-dioxide]"
13,1440,"C=CCN1c2ccccc2-c2nc(Nc3ccc(-c4nc5cnccc5[nH]4)cc3)ncc2S1(=O)=O [Example 14, 6-allyl-N-[4-(1H-imidazo[4,5-c]pyridin-2-yl)phenyl]-6H-pyrimido[5,4-c][2,1]benzothiazin-2-amine 5,5-dioxide]"
14,166,"C=CCN1c2ccccc2-c2nc(Nc3ccc(N4CCN(C)CC4)cc3OC)ncc2S1(=O)=O [Example 15, 6-allyl-N-[2-methoxy-4-(4-methylpiperazin-1-yl)phenyl]-6H-pyrimido[5,4-c][2,1]benzothiazin-2-amine 5,5-dioxide]"
15,7,"C=CCN1c2ccccc2-c2nc(Nc3ccc(N4CCOCC4)cc3)ncc2S1(=O)=O [Example 16, 6-allyl-N-[4-(morpholin-4-yl)phenyl]-6H-pyrimido[5,4-c][2,1]benzothiazin-2-amine 5,5-dioxide]"
16,2040,"C=CCN1c2ccccc2-c2nc(Nc3ccc4c(c3)CCCC4)ncc2S1(=O)=O [Example 17, 6-allyl-N-(5,6,7,8-tetrahydronaphthalen-2-yl)-6H-pyrimido[5,4-c][2,1]benzothiazin-2-amine 5,5-dioxide]"
17,4,"C=CCN1c2ccccc2-c2nc(Nc3cccc(N4CCN(C)CC4)c3)ncc2S1(=O)=O [Example 18, 6-allyl-N-[3-(4-methylpiperazin-1-yl)phenyl]-6H-pyrimido[5,4-c][2,1]benzothiazin-2-amine 5,5-dioxide]"
18,1.2,"C=CCN1c2ccccc2-c2nc(Nc3ccc(C4CCN(C)CC4)cc3)ncc2S1(=O)=O [Example 19, 6-allyl-N-[4-(1-methylpiperidin-4-yl)phenyl]-6H-pyrimido[5,4-c][2,1]benzothiazin-2-amine 5,5-dioxide]"

row,Ki [nM],SMILES
1,283,"C=CCN1c2ccccc2-c2nc(Nc3ccc(-c4nc5ccccc5[nH]4)cc3)ncc2S1(=O)=O [Example 20, 6-allyl-N-[4-(1H-benzimidazol-2-yl)phenyl]-6H-pyrimido[5,4-c][2,1]benzothiazin-2-amine 5,5-dioxide]"
2,1.7,"C=CCN1c2ccccc2-c2nc(Nc3ccc4c(c3)CN(C)CC4(C)C)ncc2S1(=O)=O [Example 22, 6-allyl-N-(2,4,4-trimethyl-1,2,3,4-tetrahydroisoquinolin-7-yl)-6H-pyrimido[5,4-c][2,1]benzothiazin-2-amine 5,5-dioxide]"
3,220,"C=CCN1c2ccccc2-c2nc(Nc3ccccc3)ncc2S1(=O)=O [Example 24, 6-allyl-N-phenyl-6H-pyrimido[5,4-c][2,1]benzothiazin-2-amine 5,5-dioxide]"
4,1.5,"C=CCN1c2ccccc2-c2nc(Nc3ccc(N4CCNCC4)cc3)ncc2S1(=O)=O [Example 25, 6-allyl-N-[4-(piperazin-1-yl)phenyl]-6H-pyrimido[5,4-c][2,1]benzothiazin-2-amine 5,5-dioxide]"
5,1,"C=CCN1c2ccccc2-c2nc(Nc3ccc4c(c3)CNCC4)ncc2S1(=O)=O [Example 26, 6-allyl-N-(1,2,3,4-tetrahydroisoquinolin-7-yl)-6H-pyrimdio[5,4-c][2,1]benzothiazin-2-amine 5,5-dioxide]"
6,30,"C=CCN1c2ccccc2-c2nc(Nc3ccncc3)ncc2S1(=O)=O [Example 27, 6-allyl-N-(pyridin-4-yl)-6H-pyrimido[5,4-c][2,1]benzothiazin-2-amine 5,5-dioxide]"
7,1.1,"C=CCN1c2ccccc2-c2nc(Nc3ccc4c(c3)CN(C)CC43CC3)ncc2S1(=O)=O [Example 28, 6-allyl-N-(2′-methyl-2′,3′-dihydro-1′H-spiro[cyclopropane-1,4′-isoquinolin]-7′-yl)-6H-pyrimido[5,4-c][2,1]benzothiazin-2-amine 5,5-dioxide]"
8,413,"C=CCN1c2ccccc2-c2nc(N)ncc2S1(=O)=O [Example 29, 6-allyl-6H-pyrimido[5,4-c][2,1]benzothiazin-2-amine 5,5-dioxide]"
9,21,"C=CCN1c2ccccc2-c2nc(Nc3ccc4c(c3)NCCC4)ncc2S1(=O)=O [Example 30, 6-allyl-N-(1,2,3,4-tetrahydroquinolin-7-yl)-6H-pyrimido[5,4-c][2,1]benzothiazin-2-amine 5,5-dioxide]"
10,1.7,"C=CCN1c2ccccc2-c2nc(Nc3ccc(N4CCNCC4)c(F)c3)ncc2S1(=O)=O [Example 31, 6-allyl-N-[3-fluoro-4-(piperazin-1-yl)phenyl]-6H-pyrimido[5,4-c][2,1]benzothiazin-2-amine 5,5-dioxide]"
11,1450,"C=CCN1c2ncccc2-c2nc(Nc3ccccc3)ncc2S1(=O)=O [Example 32, 6-allyl-N-phenyl-6H-pyrido[2,3-c]pyrimido[4,5-e][1,2]thiazin-2-amine 5,5-dioxide]"
12,3,"C=CCN1c2ncccc2-c2nc(Nc3ccc4c(c3)CNCC4)ncc2S1(=O)=O [Example 33, 6-allyl-N-(1,2,3,4-tetrahydroisoquinolin-7-yl)-6H-pyrido[2,3-c]pyrimido[4,5-e][1,2]thiazin-2-amine 5,5-dioxide]"
13,2,"C=CCN1c2ncccc2-c2nc(Nc3ccc(N4CCNCC4)cc3)ncc2S1(=O)=O [Example 34, 6-allyl-N-[4-(piperazin-1-yl)phenyl]-6H-pyrido[2,3-c]pyrimido[4,5-e][1,2]thiazin-2-amine 5,5-dioxide]"
14,48,"C=CCN1c2ncccc2-c2nc(Nc3ccc4c(c3)N(C(C)=O)CC4)ncc2S1(=O)=O [Example 35, 1-{6-[(6-allyl-5,5-dioxido-6H-pyrido[2,3-c]pyrimido[4,5-e][1,2]thiazin-2-yl)amino]-2,3-dihydro-1H-indol-1-yl}ethanone]"
15,9,"C=CCN1c2ncccc2-c2nc(Nc3ccc(N4CCNCC4)c(F)c3)ncc2S1(=O)=O [Example 36, 6-allyl-N-[3-fluoro-4-(piperazin-1-yl)phenyl]-6H-pyrido[2,3-c]pyrimido[4,5-e][1,2]thiazin-2-amine 5,5-dioxide]"
16,5,"C=CCN1c2ncccc2-c2nc(Nc3ccc(C4CCNCC4)cc3)ncc2S1(=O)=O [Example 37, 6-allyl-N-[4-(piperidin-4-yl)phenyl]-6H-pyrido[2,3-c]pyrimido[4,5-e][1,2]thiazin-2-amine 5,5-dioxide]"
17,51,"C=CCN1c2ncccc2-c2nc(Nc3ccc4c(c3)NCCC4)ncc2S1(=O)=O [Example 38, 6-allyl-N-(1,2,3,4-tetrahydroquinolin-7-yl)-6H-pyrido[2,3-c]pyrimido[4,5-e][1,2]thiazin-2-amine 5,5-dioxide]"
